Measurements as given in the Deep4Chem optical property database.

Experiment: photoluminescence quantum yield (fraction); solvent given as SMILES

For `COC(=O)/C(C#N)=c1\s/c(=c2/s/c(=C(/C#N)C(=O)OC)c3cc(-c4ccc5c(c4)C(C)(C)c4ccccc4-5)sc23)c2sc(-c3ccc4c(c3)C(C)(C)c3ccccc3-4)cc12`, the photoluminescence quantum yield (in Cc1ccccc1) was 0.531.
`COc1ccc(-c2csc(/C(C#N)=C/c3ccc(Cl)cc3)n2)cc1` gave a photoluminescence quantum yield (in CC#N) of 0.048.
With `ClC(Cl)=C1c2ccccc2C(C2(Cl)c3ccccc3C(=C(Cl)Cl)c3ccccc32)c2ccccc21` (stereo not given) the photoluminescence quantum yield (in C1CCCCC1) was 0.3, the photoluminescence quantum yield (in CCCCCO) was 0.25 and the photoluminescence quantum yield (in CCCCO) was 0.21. The photoluminescence quantum yield (in CCCO) was 0.19, the photoluminescence quantum yield (in CCO) was 0.17 and the photoluminescence quantum yield (in CO) was 0.15.
`c1ccc(-c2nc(-c3ccc(-c4nc(-c5ccccc5)c(-c5ccccc5)[nH]4)s3)[nH]c2-c2ccccc2)cc1` showed a photoluminescence quantum yield (in CC#N) of 0.55.
Molecule `Nc1ccc2cc3ccccc3cc2c1` has a photoluminescence quantum yield (in C1CCCCC1) of 0.86.
In the case of `COCCOCCOCCOCC(COCCOCCOCCOC)Oc1cc(/C=C/c2ccc(/C=C(\C#N)c3ccncc3)cc2)c(OC(COCCOCCOCCOC)COCCOCCOCCOC)cc1/C=C/c1ccc(/C=C(\C#N)c2ccncc2)cc1`, the photoluminescence quantum yield (in ClCCl) is reported as 0.45.
Work on `CCCCN(CCCC)c1ccc(C#Cc2cc(C#Cc3c(F)c(F)c(F)c(F)c3F)c(C#Cc3ccc(N(CCCC)CCCC)cc3)cc2C#Cc2c(F)c(F)c(F)c(F)c2F)cc1` yielded a photoluminescence quantum yield (in ClCCl) of 0.14.
Work on `CCCCn1c(-c2ccc(-c3nnc(-c4ccc(-c5nc6c7ccccc7c7ccccc7c6n5CCCC)cc4)o3)cc2)nc2c3ccccc3c3ccccc3c21` yielded a photoluminescence quantum yield (in ClCCl) of 0.78.
`N#Cc1c(/C=C/c2ccc(N(c3ccccc3)c3ccccc3)cc2)cc(-c2ccccc2)cc1N1CCCCC1` gave a photoluminescence quantum yield (in CS(C)=O) of 0.6.
With `C(=C\c1ccc2ccccc2c1)/c1ccc(Nc2ccccc2)cc1` the photoluminescence quantum yield (in CC#N) was 0.28 and the photoluminescence quantum yield (in CCCCCC) was 0.46.
Work on `C(=C\c1ccncn1)/c1ccc(-c2ccco2)cc1` yielded a photoluminescence quantum yield (in ClCCl) of 0.01.
`Cc1c(OCC(=O)O)cc2c3c([nH]c2c1C)C(=O)CCC3` showed a photoluminescence quantum yield (in C1COCCO1) of 0.009, a photoluminescence quantum yield (in CC#N) of 0.027 and a photoluminescence quantum yield (in CCO) of 0.019. The photoluminescence quantum yield (in CS(C)=O) was 0.089, the photoluminescence quantum yield (in O) was 0.013 and the photoluminescence quantum yield (in c1ccccc1) was 0.008.
`COc1ccc(C2=CC(c3ccc4cc(N(C)C)ccc4c3)=[O+][B-](F)(F)O2)cc1` gave a photoluminescence quantum yield (in C1CCOC1) of 0.52, a photoluminescence quantum yield (in CC#N) of 0.01 and a photoluminescence quantum yield (in CC(C)=O) of 0.12. For the same molecule, the photoluminescence quantum yield (in CS(C)=O) was 0.007, the photoluminescence quantum yield (in Cc1ccccc1) was 0.95 and the photoluminescence quantum yield (in ClC(Cl)Cl) was 0.99. The photoluminescence quantum yield (in ClCCl) was 0.62.
In the case of `COc1cc2c3cc(OC)c(OC)cc3c3cc4c(C)cc(=O)oc4cc3c2cc1OC`, the photoluminescence quantum yield (in CO) is reported as 0.02, the photoluminescence quantum yield (in CS(C)=O) is reported as 0.056 and the photoluminescence quantum yield (in ClC(Cl)Cl) is reported as 0.08.
In the case of `CN(C)c1ccc(C(=O)Nc2ccc(F)cc2)cc1`, the photoluminescence quantum yield (in C1CCCCC1) is reported as 0.0011, the photoluminescence quantum yield (in C1CCOC1) is reported as 0.0053 and the photoluminescence quantum yield (in CC#N) is reported as 0.0104. It also gave a photoluminescence quantum yield (in CCOCC) of 0.0034.
Work on `COc1ccc(-n2nc(C#N)c(NC3CCCCC3)n2)cc1` yielded a photoluminescence quantum yield (in CC#N) of 0.956.
`COc1ccc(C2=C3C(/C=C/c4cc(OC)c(OC)c(OC)c4)=C(C=O)C(/C=C/c4cc(OC)c(OC)c(OC)c4)=[N+]3[B-](F)(F)n3c(/C=C/c4cc(OC)c(OC)c(OC)c4)c(C=O)c(C=Cc4cc(OC)c(OC)c(OC)c4)c32)cc1` showed a photoluminescence quantum yield (in ClCCl) of 0.4.
Work on `CCOC(=O)CC[N+]1=c2cc3c(cc2CCC1)=Cc1c(c2ccc(N(C)C)cc2oc1=O)O3` yielded a photoluminescence quantum yield (in CC#N) of 0.217, a photoluminescence quantum yield (in CO) of 0.152 and a photoluminescence quantum yield (in ClCCl) of 0.469. The photoluminescence quantum yield (in O) was 0.03.
`COc1ccc(C2=[N+]3C(=Nc4c(-c5ccccc5)c(Br)c(-c5ccc(OC)cc5)n4[B-]3(F)F)C(c3ccccc3)=C2Br)cc1` showed a photoluminescence quantum yield (in ClC(Cl)Cl) of 0.1 and a photoluminescence quantum yield (in ClCCl) of 0.1.
Work on `N#Cc1c(-c2ccc(N(c3ccccc3)c3ccccc3)cc2)c(C#N)c(-c2ccc(N(c3ccccc3)c3ccccc3)cc2)c(C#N)c1-c1ccc(N(c2ccccc2)c2ccccc2)cc1` yielded a photoluminescence quantum yield (in O=P(c1ccccc1)(c1ccccc1)c1ccccc1Oc1ccccc1P(=O)(c1ccccc1)c1ccccc1) of 1.
`CCN(CC)c1ccc2cc(/C=C/C(=O)/C=C(O)/C=C/c3cc4ccc(N(CC)CC)cc4oc3=O)c(=O)oc2c1` showed a photoluminescence quantum yield (in C1CCOC1) of 0.62, a photoluminescence quantum yield (in C1COCCO1) of 0.66 and a photoluminescence quantum yield (in CC#N) of 0.06. For the same molecule, the photoluminescence quantum yield (in CC(C)=O) was 0.2, the photoluminescence quantum yield (in CCOC(C)=O) was 0.56 and the photoluminescence quantum yield (in CS(C)=O) was 0.05. It also gave a photoluminescence quantum yield (in Cc1ccccc1) of 0.76, a photoluminescence quantum yield (in ClC(Cl)Cl) of 0.45 and a photoluminescence quantum yield (in ClCCl) of 0.44.
For `CCCCCCN1C(=O)c2cccc3cc(/N=C\c4cnc5ccccc5c4)cc(c23)C1=O`, the photoluminescence quantum yield (in ClC(Cl)Cl) was 0.006.
Molecule `Cc1cc(=O)oc2cc3c(cc12)c1c2ccccc2c2ccccc2c1c1c2ccccc2c2ccccc2c31` has a photoluminescence quantum yield (in ClC(Cl)Cl) of 0.1.
In the case of `CN(C)c1ccc(C2=[N+]3C(=Nc4c(-c5ccc(O)cc5)cc(-c5ccc(N(C)C)cc5)n4[B-]3(F)F)C(c3ccc(O)cc3)=C2)cc1`, the photoluminescence quantum yield (in C1CCOC1) is reported as 0.04 and the photoluminescence quantum yield (in Cc1ccccc1) is reported as 0.1.
Work on `CC(=O)NC(Cc1ccc(O)cc1)C(=O)O[Si]1(OC(=O)C(Cc2ccc(O)cc2)NC(C)=O)n2c3c4ccccc4c2/N=C2N=C(/N=c4/c5ccccc5/c(n41)=N/C1=NC(=N\3)/c3ccccc31)c1ccccc1\2` (stereo not given) yielded a photoluminescence quantum yield (in CN(C)C=O) of 0.26.
Work on `N#Cc1ccc(-n2c(-c3ccc(-c4ccc(-c5nc6c7ccccc7c7ccccc7c6n5-c5ccc(C#N)c6ccccc56)c5ccccc45)c4ccccc34)nc3c4ccccc4c4ccccc4c32)c2ccccc12` yielded a photoluminescence quantum yield (in ClCCl) of 0.9.
For `CC1(C)C(/C=C/C2=C(Oc3ccc(CCN=C=S)cc3F)C(=C/C=C3/N(CCCS(=O)(=O)[O-])c4ccccc4C3(C)C)/CCC2)=[N+](CCCS(=O)(=O)[O-])c2ccccc21`, the photoluminescence quantum yield (in CO) was 0.14.
In the case of `C(=C\c1ccc(-c2ccncc2)cc1)/c1ccc(-c2ccncc2)cc1`, the photoluminescence quantum yield (in ClCCl) is reported as 0.97.
For `Cc1cc(C)c(-c2c3ccccc3c3ccc4cc5c(-c6c(C)cc(C)cc6C)c6ccccc6c6ccc7cc2c3c4c7c56)c(C)c1`, the photoluminescence quantum yield (in ClCCl) was 0.17.
`Fc1ccc(/C=C/c2nc3c4ccccc4c4ccccc4c3o2)cc1` showed a photoluminescence quantum yield (in CC#N) of 0.24.
For `COC(=O)c1ccc(NC(=O)c2ccc(N(C)C)cc2)cc1`, the photoluminescence quantum yield (in C1CCCCC1) was 0.0148, the photoluminescence quantum yield (in C1CCOC1) was 0.198 and the photoluminescence quantum yield (in CC#N) was 0.0209. For the same molecule, the photoluminescence quantum yield (in CCOCC) was 0.0512.
In the case of `CC(C)(C)NS(=O)(=O)c1ccc2c(c1)C(=O)/C(=C1\Sc3ccc(S(=O)(=O)NC(C)(C)C)cc3C1=O)S2`, the photoluminescence quantum yield (in C1COCCO1) is reported as 0.611, the photoluminescence quantum yield (in CN(C)C=O) is reported as 0.352 and the photoluminescence quantum yield (in CS(C)=O) is reported as 0.009.
Molecule `CNc1cccc2c1C(=O)c1ccccc1C2=O` has a photoluminescence quantum yield (in C1CCC2CCCCC2C1) of 0.014, a photoluminescence quantum yield (in C1CCCCC1) of 0.0135 and a photoluminescence quantum yield (in CC1CCCCC1) of 0.0138. It also gave a photoluminescence quantum yield (in CC#N) of 0.0026, a photoluminescence quantum yield (in CCC(C)CC) of 0.0136 and a photoluminescence quantum yield (in CCCCCC) of 0.0136. It also gave a photoluminescence quantum yield (in CCOC(C)=O) of 0.0048.
`C=CC12N=N[C@](C=C)(C3C4CCC(C4)C31)C1[C@@H]3CC[C@@H](C3)[C@H]12` (stereo not given in full) showed a photoluminescence quantum yield (in CC#N) of 0.16.
In the case of `CCN(CC)c1ccc2c(c1)oc(=O)c1c(C)nc3c(cnn3-c3ccccc3)c12`, the photoluminescence quantum yield (in C1CCCCC1) is reported as 0.931, the photoluminescence quantum yield (in CCOC(C)=O) is reported as 0.685 and the photoluminescence quantum yield (in CN(C)C=O) is reported as 0.37. The photoluminescence quantum yield (in CO) was 0.294 and the photoluminescence quantum yield (in ClCCl) was 0.829.
`C[Si](C)(C)C#CC(C#C[Si](C)(C)C)=Cc1ccc(C=C(C#C[Si](C)(C)C)C#C[Si](C)(C)C)s1` showed a photoluminescence quantum yield (in ClC(Cl)Cl) of 0.01.
`O=C(c1ccc(N2c3ccccc3Oc3ccccc32)cc1)c1ccc(N2c3ccccc3Oc3ccccc32)cc1` gave a photoluminescence quantum yield (in Cc1ccccc1) of 0.44 and a photoluminescence quantum yield (in c1cc(-n2c3ccccc3c3ccccc32)cc(-n2c3ccccc3c3ccccc32)c1) of 0.7.
For `Cc1ccc(/C=C/c2ccccc2-[n+]2noc([O-])c2C)cc1`, the photoluminescence quantum yield (in C1CCCCC1) was 0.0019 and the photoluminescence quantum yield (in CC#N) was 0.0019.
Work on `O=[N+]([O-])c1ccc(/C2=C3N=C(C(c4ccccc4)=C/3c3ccccc3)/C(c3ccc([N+](=O)[O-])cc3)=c3\[nH]/c(c(-c4ccccc4)c3-c3ccccc3)=C(/c3ccc([N+](=O)[O-])cc3)C3=N/C(=C(/c4ccc([N+](=O)[O-])cc4)c4[nH]c2c(-c2ccccc2)c4-c2ccccc2)C(c2ccccc2)=C3c2ccccc2)cc1` yielded a photoluminescence quantum yield (in ClCCl) of 0.003.
In the case of `COc1ccc(-n2c3ccccc3c3cc(C=C(C#N)C#N)ccc32)cc1`, the photoluminescence quantum yield (in C1CCOC1) is reported as 0.03, the photoluminescence quantum yield (in CC#N) is reported as 0.01 and the photoluminescence quantum yield (in CC(C)=O) is reported as 0.018. For the same molecule, the photoluminescence quantum yield (in CCOC(C)=O) was 0.05, the photoluminescence quantum yield (in CO) was 0.015 and the photoluminescence quantum yield (in CS(C)=O) was 0.01. For the same molecule, the photoluminescence quantum yield (in Cc1ccccc1) was 0.15 and the photoluminescence quantum yield (in ClC(Cl)Cl) was 0.035.
With `C(S/C=C/c1ccc(/C=C/SC=C2CCCCCC2)cc1)=C1CCCCCC1` the photoluminescence quantum yield (in ClCCl) was 0.109.
For `CCN(CC)c1ccc(-c2c3c(n4ccc(C(C)=O)cc24)C(=O)N(CCCNC(=O)OC(C)(C)C)C3)cc1`, the photoluminescence quantum yield (in CO) was 0.
Work on `Cc1nc2c(ccc3c2sc(/C=C/c2ccc(N(C)C)cc2)[n+]3C)s1` yielded a photoluminescence quantum yield (in ClC(Cl)Cl) of 0.02.
For `C[Si](C)(C)C#CC1=CC2=c3cc(C#C[Si](C)(C)C)c4nc(C(F)(F)C(F)(F)C(F)(F)F)nc5c(C#C[Si](C)(C)C)cc(c3c54)C3=CC(C#C[Si](C)(C)C)=C4N=C(C(F)(F)C(F)(F)C(F)(F)F)N=C1C4C32` (stereo not given), the photoluminescence quantum yield (in C1CCOC1) was 0.45.
Work on `CCCCN1c2ccccc2Sc2cc(/C=C\c3cc(=O)oc4ccc(C)cc34)ccc21` yielded a photoluminescence quantum yield (in ClC(Cl)Cl) of 0.7.
With `COc1ccccc1-c1c2ccc(=[N+]3CCCCC3)cc-2oc2cc(N3CCCCC3)ccc12` the photoluminescence quantum yield (in CCO) was 0.36 and the photoluminescence quantum yield (in ClCCl) was 0.92.
In the case of `N#Cc1ccc(/C=C2\N=C(c3ccccc3)NC2=O)cc1`, the photoluminescence quantum yield (in C1COCCO1) is reported as 0.158.
`CCCCCCCCCCCCCCCCCCOc1ccc([B-]23NC(c4ccccc4)=Nc4cccc([n+]42)N=C(c2ccccc2)N3)cc1` showed a photoluminescence quantum yield (in ClCCl) of 0.14.
For `CN(C)/C=N\c1ccc2c3c(cccc13)C(=O)c1ccccc1-2`, the photoluminescence quantum yield (in C1CCOC1) was 0.23, the photoluminescence quantum yield (in CCCCCC) was 0.31 and the photoluminescence quantum yield (in CCO) was 0.26. The photoluminescence quantum yield (in CCOC(C)=O) was 0.28, the photoluminescence quantum yield (in CN(C)C=O) was 0.2 and the photoluminescence quantum yield (in CO) was 0.27. It also gave a photoluminescence quantum yield (in Cc1ccccc1) of 0.66, a photoluminescence quantum yield (in ClC(Cl)(Cl)Cl) of 0.24 and a photoluminescence quantum yield (in ClC(Cl)Cl) of 0.55. The photoluminescence quantum yield (in ClCCl) was 0.55 and the photoluminescence quantum yield (in c1ccccc1) was 0.67.
In the case of `Nc1ccccc1/C=C/C(F)(F)F`, the photoluminescence quantum yield (in C1CCOC1) is reported as 0.77.
